Each structure is given as a SMILES string. Counter-ions that a name gives are not always drawn.

This assay deals with SARS-CoV-2 Mac1 (Severe acute respiratory syndrome coronavirus 2, UniProt P0DTD1). The assay can be described thus: biochemical. Conditions: for inhibition at 100 µM: read-out: %inhibition; for %inhibition: 100 µM, inhibitor.

As for `CN1CCN(CCCN2c3ccccc3Sc3ccc(C(F)(F)F)cc32)CC1` [Trifluoperazine 2HCl], the inhibition at 100 µM was found to be 0%.
The same measure, in the same setting: the result for `O=c1[nH]c(=O)n([C@H]2C[C@H](O)[C@@H](CO)O2)cc1C(F)(F)F` [Trifluridine] reads 0%.
For `CC(=O)Oc1cc(C(F)(F)F)ccc1C(=O)O` [Triflusal], the inhibition at 100 µM was determined as 5.82%.
For the compound `OC(CCN1CCCCC1)(c1ccccc1)C1CCCCC1` (centres unmarked) [Trihexyphenidyl hydrochloride], the inhibition at 100 µM was 2.89%.
Same read-out and setting: the result for `C[C@]12CC[C@H]3[C@@H](CC[C@@]45O[C@@H]4C(O)=C(C#N)C[C@]35C)[C@@H]1CC[C@@H]2O` [Trilostane] reads 0%.
On the same count and under the same terms, the figure for `CCC(COC(=O)c1cc(OC)c(OC)c(OC)c1)(c1ccccc1)N(C)C` (centres unmarked) [Trimebutine maleate] is 0%.
Same read-out and setting: the result for `COc1ccc(CN2CCNCC2)c(OC)c1OC` [Trimetazidine dihydrochloride] reads 0%; that for `CN1C(=O)OC(C)(C)C1=O` [Trimethadione], 0%.
On to `COc1cc(Cc2cnc(N)nc2N)cc(OC)c1OC` [Trimethoprim], for which the inhibition at 100 µM turned out to be 4.05%.
As to `CC(CN(C)C)CN1c2ccccc2CCc2ccccc21` (centres unmarked) [Trimipramine Maleate], the inhibition at 100 µM was found to be 0%.
`CN(C)CCN(Cc1ccccc1)c1ccccn1` [Tripelennamine HCl]: the inhibition at 100 µM was 0%.
On the same count and under the same terms, the figure for `Cc1ccc(/C(=C\CN2CCCC2)c2ccccn2)cc1` [Triprolidine Hydrochloride] is 2.14%.
As to `Cc1c(C)c2c(c(C)c1O)CCC(C)(COc1ccc(CC3SC(=O)NC3=O)cc1)O2` (centres unmarked) [Troglitazone (CS-045)], the inhibition at 100 µM was 5.13%.
In the case of `NC(CO)(CO)CO` [Trometamol], the inhibition at 100 µM is 3.46%.
On to `CN1[C@@H]2CC[C@H]1C[C@@H](OC(=O)c1c[nH]c3ccccc13)C2` [Tropisetron HCl], for which the “%inhibition” value turned out to be 30.45%.
On the same count and under the same terms, the result for `CN1[C@@H]2CC[C@H]1C[C@@H](OC(=O)c1c[nH]c3ccccc13)C2` [Tropisetron] reads 6.575%.
On to `O=C(O[C@H]1C[C@H]2CC[C@@H](C1)[N+]21CCCC1)C(O)(c1ccccc1)c1ccccc1` [Trospium chloride], for which the inhibition at 100 µM was 14.5%.
Same read-out and setting: the figure for `C[C@@H]1O[C@@H](OC[C@H]2O[C@@H](Oc3c(-c4ccc(OCCO)c(OCCO)c4)oc4cc(OCCO)cc(O)c4c3=O)[C@H](O)[C@@H](O)[C@@H]2O)[C@H](O)[C@H](O)[C@H]1O` [Troxerutin] is 0%.
For the compound `COc1cc(C(=O)NC2CCCNC2)cc(OC)c1OC` (centres unmarked) [Troxipide], the inhibition at 100 µM was 19.2%.
Turning to `CC[C@H]1OC(=O)C[C@@H](O)[C@H](C)[C@@H](O[C@@H]2O[C@H](C)[C@@H](O[C@H]3C[C@@](C)(O)[C@@H](O)[C@H](C)O3)[C@H](N(C)C)[C@H]2O)[C@@H](CC=O)C[C@@H](C)C(=O)/C=C/C(C)=C/[C@@H]1CO[C@@H]1O[C@H](C)[C@@H](O)[C@@H](OC)[C@H]1OC` [Tylosin tartrate], the inhibition at 100 µM was determined as 0%.
On the same count and under the same terms, the result for `CCCCOC(=O)c1ccccc1Nc1cccc(C(F)(F)F)c1` [Ufenamate] reads 7.76%; that for `CC(=O)[C@@]1(O)CC[C@H]2[C@@H]3CCC4=CC(=O)CCC4=C3[C@@H](c3ccc(N(C)C)cc3)C[C@@]21C` [Ulipristal], 0.321%.
On the same count and under the same terms, the result for `CC(C)Nc1cc(-c2c[nH]c(C(=O)N[C@H](CO)c3cccc(Cl)c3)c2)c(Cl)cn1` [Ulixertinib (BVD-523, VRT752271)] reads 24.8%; that for `OC(c1ccccc1)(c1ccccc1)C12CC[N+](CCOCc3ccccc3)(CC1)CC2` [Umeclidinium bromide], 0%.
Take `Cn1ncc(Cl)c1-c1cc(C(=O)N[C@H](CN)Cc2ccc(F)c(F)c2)oc1Cl` [Uprosertib (GSK2141795)]: the inhibition at 100 µM was 0%.
The same measure, in the same setting: the figure for `O=c1cc[nH]c(=O)[nH]1` [Uracil] is 0%; for `COc1ccccc1N1CCN(CCCNc2cc(=O)n(C)c(=O)n2C)CC1` [Urapidil HCl] it is 2.64%; for `CCOC(N)=O` [Urethane] it is 0%.
The same measure, in the same setting: the result for `O=c1ccn([C@@H]2O[C@H](CO)[C@@H](O)[C@H]2O)c(=O)[nH]1` [Uridine] reads 0%; that for `C[C@H](CCC(=O)O)[C@H]1CC[C@H]2[C@@H]3[C@@H](O)C[C@@H]4C[C@H](O)CC[C@]4(C)[C@H]3CC[C@]12C` [Ursodiol], 0%.
Same read-out and setting: the figure for `Cc1ccc(NC(=O)C2(c3ccc4c(c3)OC(F)(F)O4)CC2)nc1-c1cccc(C(=O)O)c1` [VX-809 (Lumacaftor)] is 0%; for `CC(C)[C@H](N)C(=O)OCCOCn1cnc2c(=O)nc(N)[nH]c21` [Valaciclovir HCl] it is 39.4%.
As to `COc1cc2c(cc1OC)[C@H]1C[C@@H](OC(=O)[C@@H](N)C(C)C)[C@H](CC(C)C)CN1CC2` [Valbenazine tosylate], the inhibition at 100 µM is 13.2%.
The same measure, in the same setting: the result for `Cc1onc(-c2ccccc2)c1-c1ccc(S(N)(=O)=O)cc1` [Valdecoxib] reads 9.12%.
Consider `CC(C)[C@H](N)C(=O)OCC(CO)OCn1cnc2c(=O)nc(N)[nH]c21` (some centres unmarked) [Valganciclovir HCl], for which the inhibition at 100 µM came to 0%.
The same measure, in the same setting: the figure for `C=C[C@]1(C)C[C@@H](OC(=O)CSC(C)(C)CNC(=O)[C@H](N)C(C)C)[C@]2(C)[C@H](C)CC[C@]3(CCC(=O)[C@H]32)[C@@H](C)[C@@H]1O` [Valnemulin HCl] is 23.1%.
Take `CCCC(CCC)C(=O)O` [Valproic acid sodium salt (Sodium valproate)]: the “%inhibition” value is on record as 16.22%.
For the compound `CCCC(CCC)C(=O)O` [Valproic acid], the “%inhibition” value is on record as 0%.
In the case of `CCCC(CCC)C(N)=O` [Valpromide], the inhibition at 100 µM turned out to be 13.2%.
`CCCCC(=O)N(Cc1ccc(-c2ccccc2-c2nnn[nH]2)cc1)[C@H](C(=O)O)C(C)C` [Valsartan]: the inhibition at 100 µM worked out at 31.1%.
As to `CN[C@H](CC(C)C)C(=O)N[C@H]1C(=O)N[C@@H](CC(N)=O)C(=O)N[C@H]2C(=O)N[C@H]3C(=O)N[C@H](C(=O)N[C@H](C(=O)O)c4cc(O)cc(O)c4-c4cc3ccc4O)[C@H](O)c3ccc(c(Cl)c3)Oc3cc2cc(c3O[C@@H]2O[C@H](CO)[C@@H](O)[C@H](O)[C@H]2O[C@H]2C[C@](C)(N)[C@H](O)[C@H](C)O2)Oc2ccc(cc2Cl)[C@H]1O` [Vancomycin HCl], the inhibition at 100 µM stood at 0%.
For `COc1cc2/c(=N/c3ccc(Br)cc3F)nc[nH]c2cc1OCC1CCN(C)CC1` [Vandetanib (ZD6474)], the inhibition at 100 µM was found to be 35.2%.
Still for that read-out and setting: the result for `CCCc1nc(C)c2c(O)nc(-c3cc(S(=O)(=O)N4CCN(CC)CC4)ccc3OCC)nn12` [Vardenafil HCl Trihydrate] reads 3.9%.
Consider `c1cnc2cc3c(cc2n1)[C@@H]1CNC[C@H]3C1` [Varenicline Tartrate], for which the inhibition at 100 µM was found to be 0%.
Same read-out and setting: the figure for `C[C@@H]1COC(Nc2ccc3ncnc(Nc4ccc(OCc5nccs5)c(Cl)c4)c3c2)=N1` [Varlitinib] is 0%; for `Clc1ccc(Nc2nnc(Cc3ccncc3)c3ccccc23)cc1` [Vatalanib (PTK787) 2HCl] it is 0%; for `CC(=O)O[C@H]1C[C@@H]2CC[C@@H]3[C@H](CC[C@@]4(C)[C@H]3C[C@H]([N+]3(C)CCCCC3)[C@@H]4OC(C)=O)[C@@]2(C)C[C@@H]1N1CCCCC1` [Vecuronium Bromide] it is 0%.
On to `C[C@]1(c2nc3c(C(N)=O)cccc3[nH]2)CCCN1` [Veliparib (ABT-888)], for which the inhibition at 100 µM is 54.3%.
Same read-out and setting: the figure for `COC[C@H]1C[C@@H](c2nc(-c3ccc4c(c3)COc3cc5c(ccc6nc([C@@H]7CC[C@H](C)N7C(=O)[C@@H](NC(=O)OC)C(C)C)[nH]c65)cc3-4)c[nH]2)N(C(=O)[C@H](NC(=O)OC)c2ccccc2)C1` [Velpatasvir] is 3.54%; for `CCCS(=O)(=O)Nc1ccc(F)c(C(=O)c2c[nH]c3ncc(-c4ccc(Cl)cc4)cc23)c1F` [Vemurafenib (PLX4032, RG7204)] it is 2.37%.
As to `COc1ccc(C(CN(C)C)C2(O)CCCCC2)cc1` (centres unmarked) [Venlafaxine HCl], the “%inhibition” value worked out at 0%.
Turning to `Nc1ncnc2c1ncn2[C@@H]1O[C@H](CO)[C@@H](O)[C@@H]1O` [Vidarabine monohydrate], the inhibition at 100 µM worked out at 9.49%.
In the case of `Nc1ncnc2c1ncn2[C@@H]1O[C@H](CO)[C@@H](O)[C@@H]1O` [Vidarabine], the “%inhibition” value was 17.83%.
For `COc1cccc(-c2ccc(NC(=O)C3=C(C(=O)O)CCC3)c(F)c2)c1` [Vidofludimus], the inhibition at 100 µM was 19.8%.
In the case of `N#Cc1ccc2[nH]cc(CCCCN3CCN(c4ccc5oc(C(N)=O)cc5c4)CC3)c2c1` [Vilazodone HCl], the inhibition at 100 µM came out at 9.5%.
The same measure, in the same setting: the result for `N#C[C@@H]1CCCN1C(=O)CNC12CC3CC(CC(O)(C3)C1)C2` [Vildagliptin (LAF-237)] reads 11.7%; that for `CC[C@]1(O)C[C@@H]2CN(CCc3c([nH]c4ccccc34)[C@@](C(=O)OC)(c3cc4c(cc3OC)N(C)[C@H]3[C@@](O)(C(=O)OC)[C@H](OC(C)=O)[C@]5(CC)C=CCN6CC[C@]43[C@@H]65)C2)C1` [Vinblastine sulfate], 1.94%; that for `CC[C@]12CCCN3CCc4c(n(c5ccccc45)[C@@](O)(C(=O)OC)C1)[C@@H]32` [Vincamine], 13.7%.
For the compound `CC[C@]1(O)C[C@H]2CN(CCc3c([nH]c4ccccc34)[C@@](C(=O)OC)(c3cc4c(cc3OC)N(C=O)[C@H]3[C@@](O)(C(=O)OC)[C@H](OC(C)=O)[C@]5(CC)C=CCN6CC[C@]43[C@@H]65)C2)C1` [Vincristine sulfate], the inhibition at 100 µM turned out to be 42.2%.
The same measure, in the same setting: the result for `CCOC(=O)C1=C[C@]2(CC)CCCN3CCc4c(n1c1ccccc41)[C@@H]32` [Vinpocetine] reads 1.15%; that for `CS(=O)(=O)c1ccc(C(=O)Nc2ccc(Cl)c(-c3ccccn3)c2)c(Cl)c1` [Vismodegib (GDC-0449)], 0%; that for `CC(=O)OC/C=C(C)/C=C/C=C(C)/C=C/C1=C(C)CCCC1(C)C` [Vitamin A Acetate], 4.44%.

Values taken from paper doi:10.1101/2021.10.07.463234v2 (biorxiv, 2021).
